Literature values, collected in patent US20120149711A1, “PIPERIDINE DERIVATIVES USED AS OREXIN ANTAGONISTS” (Glaxo Group Limited, priority 2009, published 2012).
No end group written: not given here.

Test system: freely-feeding rats
Settings: central administration, 4 hour time period

orexin-A: ligand for the orexin-1 receptor; an agonist of the orexin receptors (QPLPDCCRQKTCSCRLYELLHGAGNHAAGILTL; ends and bridges not checked; cysteine pairing not given here; UniProt O43612 34-66, looked up)
increase of food intake over control rats receiving vehicle: approximately four-fold
